Laboratory results taken from patent US10238688B2, “Combination therapies for bladder cancer” (GENEDIA BIOTECH CO. LTD., priority 2015, dated 2019).

How the values were obtained:
Assay type in all cases: cell-based, human
Heat Shock pathway = assay: Cignal Finder dual-luciferase pathway reporter, Heat Shock; set-up: key to Relative activity, Heat Shock reporter: firefly/renilla ratio, background (negative control) subtracted; settings: for Relative activity, Heat Shock reporter: luc/Renluc relative to negative control reporter, single drug at 4 folds vs EH/Ci/Mi combination
Procedure: (§1) The pathway analysis was performed with Qiagen's Cignal Finder Pathway Reporter Array systems according to the manufacturer's instructions. The pathway-focused dual-luciferase reporter construct was a mixture of an inducible transcription factor responsive firefly luciferase reporter and constitutively expressing renilla construct. Transcriptional response element (TRE) sequence response elements to each specific transcriptional factor triggered by the different signaling pathways are positioned before the TATA box of firefly luciferase reporter gene. The extent of activity of the reporter reflects the level of activity of the particular signaling pathway. CMV controlled renilla expression vector is co-transfected into the cell as an internal control. Non-inducible reporter construct that lacks the transcriptional factor binding sequence and could not be induced by any transcription factors is used as a negative control. Cells transfected with CMV directed firefly luciferase reporter gene serve as a positive control. Briefly, cells seeded in 6-well plates were transfected with Cignal finder pathway arrays according to the manufacturer's instructions (Qiagen). Then cells were seeded onto 96-well plates. […] After 6 h of incubation with the different drugs at 37° C., cells were lysed and a dual luciferase assay (for firefly and renilla luciferase) was performed using a PromegaGloMax 20/20 illuminometer. The firefly luciferase activities were normalized over the renilla luciferase activities after background activity determined by luciferase activities of negative controls was subtracted. A triple test of cell survival under these drug doses was also performed by MTT assay following 18 h incubation at 37° C. […]

Myc/Max pathway = assay: Cignal Finder dual-luciferase pathway reporter, Myc/Max; settings: for Relative activity, Myc/Max reporter: luc/Renluc relative to negative control reporter, single drug at 4 folds vs EH/Ci/Mi combination
Procedure: as §1

Wnt pathway = assay: Cignal Finder dual-luciferase pathway reporter, Wnt; set-up: key to Relative activity, Wnt reporter: firefly/renilla ratio, background (negative control) subtracted; settings: for Relative activity, Wnt reporter: luc/Renluc relative to negative control reporter, single drug at 4 folds vs EH/Ci/Mi combination;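 on digitalized pathway activity, Wnt: code −1 means repressed below 0.5-fold of 5637 cells or no-drug control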
Procedure: The pathway analysis was performed with Qiagen's Cignal Finder Pathway Reporter Array systems according to the manufacturer's instructions. The pathway-focused dual-luciferase reporter construct was a mixture of an inducible transcription factor responsive firefly luciferase reporter and constitutively expressing renilla construct. Transcriptional response element (TRE) sequence response elements to each specific transcriptional factor triggered by the different signaling pathways are positioned before the TATA box of firefly luciferase reporter gene. The extent of activity of the reporter reflects the level of activity of the particular signaling pathway. CMV controlled renilla expression vector is co-transfected into the cell as an internal control. Non-inducible reporter construct that lacks the transcriptional factor binding sequence and could not be induced by any transcription factors is used as a negative control. Cells transfected with CMV directed firefly luciferase reporter gene serve as a positive control. Briefly, cells seeded in 6-well plates were transfected with Cignal finder pathway arrays according to the manufacturer's instructions (Qiagen). Then cells were seeded onto 96-well plates. Ci (6000 ng/mL), Mi (800 ng/mL), or EH (1000 ng/mL) and Ci/Mi/EH combination (Ci, 1500 ng/mL, Mi, 800 ng/mL and EH, 1000 ng/m L) were then added to the cells 24 h post-transfection. After 6 h of incubation with the different drugs at 37° C., cells were lysed and a dual luciferase assay (for firefly and renilla luciferase) was performed using a PromegaGloMax 20/20 illuminometer. The firefly luciferase activities were normalized over the renilla luciferase activities after background activity determined by luciferase activities of negative controls was subtracted. A triple test of cell survival under these drug doses was also performed by MTT assay following 18 h incubation at 37° C. […]

EJ = assay: MTT cell survival / IC50, EJ cells
Procedure: (§2) The clinical grade of the chemotherapeutics (NCI Dictionary of Cancer Terms) was provided by the First Affiliated Hospital of Harbin Medical University: Pirarubicin (Pi, Wanle, Shenzhen), Paclitaxel (Pa, Taiji, Sichuan), Adriamycin (Ad, Pfizer, Jiangsu), Epirubicin Hydrochloride (EH, Haizheng, Zhejiang), Hydroxycamptothecin (Hy, Lishizhen, Hubei), Cisplatin (Ci, Haosen, Jiangsu), Gemcitabine (Ge, Haosen, Jiangsu) and Mitomycin (Mi, Haizheng, Zhejiang). The drug induced cell death was determined by a thiazolyl […] (MTT, 490 nm reading) based cell proliferation assay in the cultured cells following treatment by various concentrations of drugs for 72 hours. The relative chemoresistance to each drug of all cell lines was calculated with the lowest IC50 as a reference. The overall chemoresistance of each cell line was described as “chemoresistance index”, the numerator of the total relative IC50 to all the drugs over the number of drugs to rank the overall resistance state of each cell line to the six chemotherapeutics collectively.
(§3) The relative IC50 (fold) of each drug of all nine cell lines was normalized to the lowest IC50 in the most sensitive cell line (FIG. 2G), to describe the single drug resistance of cell lines. The overall chemoresistance of each cell line, a “chemoresistance index” (the numerator of the total relative IC50 over the number of drugs) (FIG. 2G) were calculated to rank the overall resistance state of each cell line to this six chemotherapeutics.
(§4) Twenty six-drug combinations at the indicated doses were initially generated through a random number generator (using MATLAB MathWorks©, Natick, Mass., U.S.) (The upper half of Table 1). The cell survival (% over the not drug control) of treated cells was determined and then used for a calculation of the average cumulative cell survival (%, ACS: the sum of cell survival (%) per combination divided by the number of cell lines tested). ACS<30% was used to separate the effective from the not-effective combinations.

T24 = assay: MTT cell survival / IC50, T24 cells
Procedure: as §2, §3, §4

[1] = Table S3, ng/ml: Pi 40, Pa 160, EH 250, Ci 1500, Mi 200, 1=Ci/Mi, 2=EH/Ci/Mi, 3=Pa/Ci/Mi, 4=Pi/Ci/Mi
[2] = ng/ml: EH 1000, Ci 6000, Mi 800, Pi 160, Pa 640, Ge 20, EH/Ci/Mi regimen

SMILES: N.N.[Cl][Pt][Cl] [Ci, (SP-4-2)-diamminedichloroplatinum(II)]
- digitalized pathway activity, Heat Shock (Heat Shock pathway; 5637 cells): 0 (null (0) if neither of the above holds)
- relative drug trigged pathway activity over the no-drug level, Heat Shock (Heat Shock pathway; 5637 cells): 0.65 fold
- Relative activity, Heat Shock reporter (Heat Shock pathway; 5637 cells): 9.18
- relative drug trigged pathway activity over the no-drug level, Heat Shock (Heat Shock pathway; Biu87 cells): 1.52 fold
- Relative activity, Heat Shock reporter (Heat Shock pathway; Biu87 cells): 2.87
- digitalized pathway activity, Heat Shock (Heat Shock pathway; H-bc cells): 0 (null (0) if neither of the above holds)
- relative drug trigged pathway activity over the no-drug level, Heat Shock (Heat Shock pathway; H-bc cells): 1.19 fold
- Relative activity, Heat Shock reporter (Heat Shock pathway; H-bc cells): 16.31
- digitalized pathway activity, Heat Shock (Heat Shock pathway; SV-HUC-1 cells): 0 (null (0) if neither of the above holds)
- relative drug trigged pathway activity over the no-drug level, Heat Shock (Heat Shock pathway; SV-HUC-1 cells): 0.93 fold
- Relative activity, Heat Shock reporter (Heat Shock pathway; SV-HUC-1 cells): 36.80
- digitalized pathway activity, Heat Shock (Heat Shock pathway; UM-UC-3 cells): 0 (null (0) if neither of the above holds)
- Relative activity, Heat Shock reporter (Heat Shock pathway; UM-UC-3 cells): 3.42
- relative drug trigged pathway activity over the no-drug level, Heat Shock (Heat Shock pathway; Um-Uc-3 cells): 0.79 fold
- digitalized pathway activity, Myc/Max (Myc/Max pathway; 5637 cells): 0 (null (0) if neither of the above holds)
- relative drug trigged pathway activity over the no-drug level, Myc/Max (Myc/Max pathway; 5637 cells): 1.05 fold
- Relative activity, Myc/Max reporter (Myc/Max pathway; 5637 cells): 11.64
- digitalized pathway activity, Myc/Max (Myc/Max pathway; Biu87 cells): 0 (null (0) if neither of the above holds)
- relative drug trigged pathway activity over the no-drug level, Myc/Max (Myc/Max pathway; Biu87 cells): 0.56 fold
- Relative activity, Myc/Max reporter (Myc/Max pathway; Biu87 cells): 4.60
- digitalized pathway activity, Myc/Max (Myc/Max pathway; H-bc cells): 0 (null (0) if neither of the above holds)
- relative drug trigged pathway activity over the no-drug level, Myc/Max (Myc/Max pathway; H-bc cells): 1.03 fold
- Relative activity, Myc/Max reporter (Myc/Max pathway; H-bc cells): 50.23
- digitalized pathway activity, Myc/Max (Myc/Max pathway; SV-HUC-1 cells): 0 (null (0) if neither of the above holds)
- relative drug trigged pathway activity over the no-drug level, Myc/Max (Myc/Max pathway; SV-HUC-1 cells): 1 fold
- Relative activity, Myc/Max reporter (Myc/Max pathway; SV-HUC-1 cells): 109.70
- Relative activity, Myc/Max reporter (Myc/Max pathway; UM-UC-3 cells): 24.42
- relative drug trigged pathway activity over the no-drug level, Myc/Max (Myc/Max pathway; Um-Uc-3 cells): 0.42 fold
- digitalized pathway activity, Wnt (Wnt pathway; 5637 cells): 0 (null (0) if neither of the above holds)
- relative drug trigged pathway activity over the no-drug level, Wnt (Wnt pathway; 5637 cells): 1.14 fold
- Relative activity, Wnt reporter (Wnt pathway; 5637 cells): 1.00
- relative drug trigged pathway activity over the no-drug level, Wnt (Wnt pathway; Biu87 cells): 0.41 fold
- Relative activity, Wnt reporter (Wnt pathway; Biu87 cells): 0.69
- digitalized pathway activity, Wnt (Wnt pathway; H-bc cells): 0 (null (0) if neither of the above holds)
- relative drug trigged pathway activity over the no-drug level, Wnt (Wnt pathway; H-bc cells): 0.78 fold
- Relative activity, Wnt reporter (Wnt pathway; H-bc cells): 3.14
- digitalized pathway activity, Wnt (Wnt pathway; SV-HUC-1 cells): 0 (null (0) if neither of the above holds)
- relative drug trigged pathway activity over the no-drug level, Wnt (Wnt pathway; SV-HUC-1 cells): 1.25 fold
- Relative activity, Wnt reporter (Wnt pathway; SV-HUC-1 cells): 1.55
- Relative activity, Wnt reporter (Wnt pathway; UM-UC-3 cells): 1.73
- relative drug trigged pathway activity over the no-drug level, Wnt (Wnt pathway; Um-Uc-3 cells): 0.48 fold
- Cell survival (%) (EJ; [1]): 32.34%
- Single drug 4X Cell Survival (%) (EJ; [2]): 22.36%
- Cell survival (%) (T24; [1]): 15.46%
- Single drug 4X Cell Survival (%) (T24; [2]): 10.49%
